Data as given in US11377423B2, “Inhibitors of histone deacetylase” (The Broad Institute, Inc., priority 2012, dated 2022).
Where two headings read alike, the source gives them in different places.

Assays:
HDAC1 [1] = molecular target: T1, HDAC1 (Homo sapiens (Human), UniProt Q13547); assay: Caliper HDAC enzymatic endpoint assay, HDAC1; format: biochemical; conditions: read-out: HDAC1 IC50 3 h Prein; Table 2, 3 h preincubation
HDAC2 [2] = molecular target: T2, HDAC2 (Homo sapiens (Human), UniProt Q92769); assay: Caliper HDAC enzymatic endpoint assay, HDAC2; format: biochemical; conditions: read-out: HDAC2 IC50 3 h Prein; Table 2, 3 h preincubation
T2 sequence (Q92769 whole entry): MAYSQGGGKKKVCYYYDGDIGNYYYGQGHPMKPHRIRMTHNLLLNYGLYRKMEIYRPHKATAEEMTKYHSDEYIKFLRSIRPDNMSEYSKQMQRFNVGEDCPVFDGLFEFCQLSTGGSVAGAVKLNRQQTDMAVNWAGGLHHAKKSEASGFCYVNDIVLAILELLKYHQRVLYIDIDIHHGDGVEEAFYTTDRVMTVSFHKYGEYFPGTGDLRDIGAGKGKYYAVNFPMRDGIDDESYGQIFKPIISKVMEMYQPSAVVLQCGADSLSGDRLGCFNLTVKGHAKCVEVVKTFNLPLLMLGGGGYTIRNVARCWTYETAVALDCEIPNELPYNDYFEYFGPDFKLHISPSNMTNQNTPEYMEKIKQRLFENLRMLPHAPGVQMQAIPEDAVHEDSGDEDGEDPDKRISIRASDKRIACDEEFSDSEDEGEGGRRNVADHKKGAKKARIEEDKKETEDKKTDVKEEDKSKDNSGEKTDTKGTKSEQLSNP

HDAC3 = HDAC3 (Homo sapiens (Human), UniProt O15379); assay: Caliper HDAC enzymatic endpoint assay, HDAC3; format: biochemical; conditions: read-out: HDAC3 IC50 3 h Prein; Table 2, 3 h preincubation
HDAC3, sequence (O15379 whole entry, canonical isoform): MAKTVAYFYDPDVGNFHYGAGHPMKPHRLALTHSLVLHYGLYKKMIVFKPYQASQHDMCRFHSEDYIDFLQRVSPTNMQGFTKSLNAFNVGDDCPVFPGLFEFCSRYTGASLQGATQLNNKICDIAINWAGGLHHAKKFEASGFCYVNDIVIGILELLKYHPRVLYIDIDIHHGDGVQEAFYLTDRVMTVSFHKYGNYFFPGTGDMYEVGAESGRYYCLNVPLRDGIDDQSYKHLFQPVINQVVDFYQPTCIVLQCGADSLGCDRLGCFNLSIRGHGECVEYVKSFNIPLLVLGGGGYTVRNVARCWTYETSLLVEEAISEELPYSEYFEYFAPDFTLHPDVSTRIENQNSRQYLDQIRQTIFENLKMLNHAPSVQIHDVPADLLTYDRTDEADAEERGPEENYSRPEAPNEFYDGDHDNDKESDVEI
HDAC3, sequence (Q9Y618 395-489 partner): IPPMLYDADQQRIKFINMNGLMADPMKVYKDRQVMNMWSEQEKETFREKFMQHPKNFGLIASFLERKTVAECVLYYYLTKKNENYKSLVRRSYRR

[3] = test system: HDACs 1, 2, 3, 4, 5, 6, 7, 8, and 9; assay: HDAC selectivity panel (Caliper), isoform selectivity; conditions: from IC50 values
HDAC4 = HDAC4 (Homo sapiens (Human), UniProt P56524); assay: Caliper HDAC enzymatic endpoint assay, HDAC4; format: biochemical; conditions: Table 2C; read-out: HDAC4 IC50 after 0 hr preincubation
HDAC5 = HDAC5 (Homo sapiens (Human), UniProt Q9UQL6); assay: Caliper HDAC enzymatic endpoint assay, HDAC5; format: biochemical; conditions: Table 2C; read-out: HDAC5 IC50 after 0 hr preincubation
HDAC6 = HDAC6 (Homo sapiens (Human), UniProt Q9UBN7); assay: Caliper HDAC enzymatic endpoint assay, HDAC6; format: biochemical; conditions: Table 2C; read-out: HDAC6 IC50 after 0 hr preincubation
HDAC6, sequence (Q9UBN7 whole entry): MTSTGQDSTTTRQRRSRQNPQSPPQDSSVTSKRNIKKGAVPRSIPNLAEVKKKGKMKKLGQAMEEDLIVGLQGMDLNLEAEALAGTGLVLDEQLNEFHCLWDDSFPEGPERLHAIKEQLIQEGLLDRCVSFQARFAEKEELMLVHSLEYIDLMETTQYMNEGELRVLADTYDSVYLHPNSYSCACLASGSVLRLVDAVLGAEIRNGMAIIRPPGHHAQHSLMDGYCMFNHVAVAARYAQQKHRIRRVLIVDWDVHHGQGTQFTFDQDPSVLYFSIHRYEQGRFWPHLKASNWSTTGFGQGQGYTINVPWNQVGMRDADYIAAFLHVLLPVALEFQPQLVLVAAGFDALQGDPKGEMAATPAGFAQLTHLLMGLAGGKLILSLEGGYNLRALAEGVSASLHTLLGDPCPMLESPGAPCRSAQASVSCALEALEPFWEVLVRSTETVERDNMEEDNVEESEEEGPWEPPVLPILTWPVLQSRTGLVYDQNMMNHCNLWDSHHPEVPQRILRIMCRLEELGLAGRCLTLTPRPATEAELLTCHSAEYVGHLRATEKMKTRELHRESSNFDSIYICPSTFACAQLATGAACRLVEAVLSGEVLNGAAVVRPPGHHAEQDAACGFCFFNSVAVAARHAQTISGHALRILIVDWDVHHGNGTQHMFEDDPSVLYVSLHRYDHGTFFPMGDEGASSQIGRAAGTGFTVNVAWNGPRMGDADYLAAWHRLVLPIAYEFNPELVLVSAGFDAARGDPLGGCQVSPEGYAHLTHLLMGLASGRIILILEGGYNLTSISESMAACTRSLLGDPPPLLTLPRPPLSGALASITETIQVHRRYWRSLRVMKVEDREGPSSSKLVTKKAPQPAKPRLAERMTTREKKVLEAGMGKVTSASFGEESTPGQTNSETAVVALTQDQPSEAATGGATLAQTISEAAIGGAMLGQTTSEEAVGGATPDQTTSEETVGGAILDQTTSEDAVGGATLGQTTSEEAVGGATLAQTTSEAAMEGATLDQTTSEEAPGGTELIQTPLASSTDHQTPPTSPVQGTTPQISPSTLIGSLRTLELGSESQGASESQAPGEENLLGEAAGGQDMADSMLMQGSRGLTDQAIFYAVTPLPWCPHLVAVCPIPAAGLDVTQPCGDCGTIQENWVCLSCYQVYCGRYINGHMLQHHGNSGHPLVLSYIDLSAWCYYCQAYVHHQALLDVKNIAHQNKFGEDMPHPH

HDAC7 = HDAC7 (Homo sapiens (Human), UniProt Q8WUI4); assay: Caliper HDAC enzymatic endpoint assay, HDAC7; format: biochemical; conditions: Table 2C; read-out: HDAC7 IC50 after 0 hr preincubation
HDAC7, sequence (Q8WUI4 whole entry): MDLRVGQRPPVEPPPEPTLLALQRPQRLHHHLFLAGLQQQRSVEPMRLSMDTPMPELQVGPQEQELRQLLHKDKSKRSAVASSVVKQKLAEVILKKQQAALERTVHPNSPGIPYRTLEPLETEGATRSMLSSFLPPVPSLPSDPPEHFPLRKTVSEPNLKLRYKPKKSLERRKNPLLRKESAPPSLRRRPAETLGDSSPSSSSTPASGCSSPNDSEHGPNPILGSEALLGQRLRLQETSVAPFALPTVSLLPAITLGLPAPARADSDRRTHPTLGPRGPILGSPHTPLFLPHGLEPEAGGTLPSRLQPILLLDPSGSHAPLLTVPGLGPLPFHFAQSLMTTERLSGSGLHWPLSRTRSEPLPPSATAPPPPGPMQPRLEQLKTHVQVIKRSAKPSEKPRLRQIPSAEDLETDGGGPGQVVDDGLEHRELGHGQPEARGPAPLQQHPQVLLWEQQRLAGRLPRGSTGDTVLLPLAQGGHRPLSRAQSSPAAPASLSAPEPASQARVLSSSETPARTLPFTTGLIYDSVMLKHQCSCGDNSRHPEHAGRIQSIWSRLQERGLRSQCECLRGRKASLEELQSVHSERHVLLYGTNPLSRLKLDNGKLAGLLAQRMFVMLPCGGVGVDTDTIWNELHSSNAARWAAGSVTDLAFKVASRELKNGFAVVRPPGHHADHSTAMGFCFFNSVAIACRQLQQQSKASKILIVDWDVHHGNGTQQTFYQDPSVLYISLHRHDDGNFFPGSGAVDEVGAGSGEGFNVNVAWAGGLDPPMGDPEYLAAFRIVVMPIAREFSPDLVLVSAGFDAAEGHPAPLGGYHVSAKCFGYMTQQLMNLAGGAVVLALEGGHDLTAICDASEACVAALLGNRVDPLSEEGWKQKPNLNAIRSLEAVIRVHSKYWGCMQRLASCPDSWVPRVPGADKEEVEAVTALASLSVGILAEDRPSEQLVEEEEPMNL

HDAC8 = HDAC8 (Homo sapiens (Human), UniProt Q9BY41); assay: Caliper HDAC enzymatic endpoint assay, HDAC8; format: biochemical; conditions: Table 2C; read-out: HDAC8 IC50 after 0 hr preincubation
HDAC8, sequence (Q9BY41 whole entry): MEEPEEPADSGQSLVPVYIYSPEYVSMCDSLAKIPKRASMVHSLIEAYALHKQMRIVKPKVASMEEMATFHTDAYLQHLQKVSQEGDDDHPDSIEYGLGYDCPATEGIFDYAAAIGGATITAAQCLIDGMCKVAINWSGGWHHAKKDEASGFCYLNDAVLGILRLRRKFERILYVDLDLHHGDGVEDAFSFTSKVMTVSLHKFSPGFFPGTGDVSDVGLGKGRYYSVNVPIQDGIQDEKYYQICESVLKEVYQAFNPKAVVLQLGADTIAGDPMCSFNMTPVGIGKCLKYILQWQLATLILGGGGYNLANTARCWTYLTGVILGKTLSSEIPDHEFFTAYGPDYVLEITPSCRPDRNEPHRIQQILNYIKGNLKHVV

HDAC9 = HDAC9 (Homo sapiens (Human), UniProt Q9UKV0); assay: Caliper HDAC enzymatic endpoint assay, HDAC9; format: biochemical; conditions: Table 2C; read-out: HDAC9 IC50 after 0 hr preincubation
HDAC9, sequence (Q9UKV0 whole entry): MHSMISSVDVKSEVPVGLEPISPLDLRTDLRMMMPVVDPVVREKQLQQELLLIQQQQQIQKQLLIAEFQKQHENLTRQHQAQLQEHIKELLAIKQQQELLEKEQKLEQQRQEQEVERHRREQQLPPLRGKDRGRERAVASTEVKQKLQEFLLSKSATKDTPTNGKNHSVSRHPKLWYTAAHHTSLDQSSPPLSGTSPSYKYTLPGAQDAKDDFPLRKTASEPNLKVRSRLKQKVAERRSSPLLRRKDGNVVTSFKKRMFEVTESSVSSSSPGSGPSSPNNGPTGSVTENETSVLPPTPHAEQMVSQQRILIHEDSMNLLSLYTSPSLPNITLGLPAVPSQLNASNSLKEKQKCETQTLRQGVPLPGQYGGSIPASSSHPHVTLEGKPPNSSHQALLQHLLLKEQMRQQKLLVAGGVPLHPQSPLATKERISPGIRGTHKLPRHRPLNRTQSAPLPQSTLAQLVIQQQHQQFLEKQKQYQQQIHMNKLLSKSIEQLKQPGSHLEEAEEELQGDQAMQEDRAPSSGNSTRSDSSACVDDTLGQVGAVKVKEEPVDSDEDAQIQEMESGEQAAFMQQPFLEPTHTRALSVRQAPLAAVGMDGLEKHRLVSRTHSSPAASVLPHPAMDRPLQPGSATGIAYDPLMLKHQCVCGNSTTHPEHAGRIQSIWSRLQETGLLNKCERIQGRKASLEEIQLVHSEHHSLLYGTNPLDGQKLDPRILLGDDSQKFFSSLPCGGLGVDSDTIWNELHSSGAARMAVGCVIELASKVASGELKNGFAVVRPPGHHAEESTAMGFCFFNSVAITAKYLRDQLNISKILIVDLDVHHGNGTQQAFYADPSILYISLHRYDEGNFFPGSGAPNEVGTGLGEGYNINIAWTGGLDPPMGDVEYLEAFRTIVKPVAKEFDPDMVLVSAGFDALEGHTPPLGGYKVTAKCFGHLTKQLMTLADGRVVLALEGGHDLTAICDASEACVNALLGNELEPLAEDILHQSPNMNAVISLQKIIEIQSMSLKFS

INS-1E cells = assay: Cytokine-induced beta-cell apoptosis, caspase-3 activity assay; format: cell-based, rat; conditions: IL-1β, IFN-γ, TNF-α, 48 hours, 5 μM compound
Experimental: Compounds of the invention were evaluated for their ability to suppress cytokine-induced beta-cell apoptosis and palmitate and/or glucose-induced beta-cell apoptosis by inhibition of HDAC3. Assay protocols were as follows: Cell culture and reagents. […] Recombinant IL-1β, IFN-γ, and TNF-α were purchased from R&D Systems. Palmitate, D-glucose and fatty acids-free low endotoxin BSA were purchased from Sigma. Palmitate was solubilized in 90% ethanol, heated to 60° C. and used 1:100 dilution in media. Caspase-Glo 3/7 was from Promega and 3-(4,5-dimethylthiazol-2-yl)-2,5-diphenyltetrazolium bromide (MTT) was from Calbiochem. Antibodies for HDAC1, HDAC2, HDAC3, pJNK, JNK cleaved caspase-9 and secondary horseradish-peroxidase conjugated goat anti-mouse and anti-rabbit antibodies were from Cell Signaling. Antibody for beta-actin was from Sigma and antibody against CHOP (GADD153) from Abcam. HDAC inhibitors were purchased from Selleck Chemicals or synthesized in-house. Primers were from Integrated DNA Technologies, High Capacity cDNA RT kit and SYBR green master mix were purchased from Applied Biosystems. INS-1E cells were seeded at 5,000 cells/well using a Multidrop Combi (Thermo Labsystems) in white optical 384-well plates (Corning Life Sciences). After overnight incubation, medium was removed and 50 μL RPMI containing the treated compound, 1% FBS and either a combination of cytokines (10 ng/mL IL-1β, 50 ng/mL IFN-γ, 25 ng/mL TNF-α) or 0.5 mM sodium palmitate was added to every well. After two-day treatment, medium was removed and 20 μL Caspase-Glo 3/7 reagent was added. Luminescence was measured after a two-hour incubation using an Envision plate reader (PerkinElmer). […] The rat INS-1E cell line was simultaneously treated for 48 hours with a combination of pro-inflammatory cytokines IL-1β, IFN-γ, and TNF-α, and the indicated test compounds. […] Compound 9, a negative control, had no effect. […] FIGS. 9C and 9D show a dose-response analysis of HDAC inhibition in suppression of cytokine-induced beta-cell apoptosis. […] This could translate to a larger therapeutic window. […]

[4] = test system: human megakaryocyte progenitors; assay: Growth of human megakaryocyte progenitors (surrogate assay for platelet depletion); format: cell-based; conditions: 0.1, 1, 10 and 20 μM, relative to DMSO treated cells
Experimental: Compounds of the invention were evaluated for their effect on the growth of human megakaryocyte progenitors (surrogate assay for platelet depletion). Human CD34+ cells were grown in a collagen-based gel (Megacult-C, Stemcell Technologies). […] 100% indicates no difference in cell viability relative to the DMSO treated cells. […] This is the desired effect.

HDAC2 [5] = molecular target: T2, HDAC2
HDAC1 [6] = molecular target: T1, HDAC1; assay: Kinetics of the inhibition of HDAC1; conditions: HDAC1 residence
[7] = Brain and plasma concentration in mice; format: in vivo; conditions: for half-life: mouse, other: injected (site of injection not given)
Experimental: Specifically, mice were injected with a single dose of compound and the concentration of compound was measured in the brain and plasma of mice at 8 time points. The samples were analyzed by LC-MS/MS.

[8] = mice, single dose, Repligen 136 30 mg/kg, Compound 1 10 mg/kg

T1 sequence (Q13547 whole entry): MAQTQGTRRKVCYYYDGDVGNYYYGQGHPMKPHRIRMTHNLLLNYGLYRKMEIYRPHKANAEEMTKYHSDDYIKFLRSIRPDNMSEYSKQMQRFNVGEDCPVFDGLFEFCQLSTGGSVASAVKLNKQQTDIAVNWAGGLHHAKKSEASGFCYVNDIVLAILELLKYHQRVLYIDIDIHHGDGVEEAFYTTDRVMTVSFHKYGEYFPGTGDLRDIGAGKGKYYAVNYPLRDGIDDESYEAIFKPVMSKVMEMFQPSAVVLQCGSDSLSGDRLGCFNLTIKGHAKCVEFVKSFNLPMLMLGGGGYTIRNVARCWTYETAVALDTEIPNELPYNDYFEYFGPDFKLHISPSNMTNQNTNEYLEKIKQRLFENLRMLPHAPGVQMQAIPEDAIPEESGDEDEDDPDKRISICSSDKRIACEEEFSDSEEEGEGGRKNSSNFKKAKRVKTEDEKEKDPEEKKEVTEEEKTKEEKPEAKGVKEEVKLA

Row | SMILES | IC50 (HDAC1 [1]) [µM] | IC50 (HDAC2 [2]) [µM] | IC50 (HDAC3) [µM] | HDAC isoform selectivity [3] | also measured
1 | CC(=O)Nc1ccc(C(=O)Nc2ccc(F)cc2N)c(F)c1 [Compound 6, 4-acetamido-N-(2-amino-4-fluorophenyl)-2-fluorobenzamide] | 1.38 | 3.12 | 0.08 | HDAC3 selective compound | 
2 | Nc1cc(F)ccc1NC(=O)c1ccccc1 [Compound 7, N-(2-amino-4-fluorophenyl)benzamide] | 7.95 | 12.7 | 0.418 | HDAC3 selective compound | 
3 | Nc1cc(F)ccc1NC(=O)c1ccc(F)cc1 [Compound 8, N-(2-amino-4-fluorophenyl)-4-fluorobenzamide] | 8.26 | 11.7 | 0.436 | HDAC3 selective compound | 
4 | CC(=O)Nc1ccc(C(=O)Nc2cc(F)ccc2N)cc1 [Compound 11, 4-acetamido-N-(2-amino-5-fluorophenyl)benzamide] | 0.153 | 0.479 | 0.106 |  | 
5 | Nc1ccccc1NC(=O)c1ccc(CNC(=O)OCc2cccnc2)cc1 [MS-275, reference compound] |  |  |  |  | T1/2 (HDAC2 [5]): 1.05 h; T1/2 (HDAC1 [6]): 1.77 h
6 | Cc1ccc(C(=O)NCCCCCC(=O)Nc2ccc(F)cc2N)cc1 [Repligen 136, N-(6-(2-amino-4-fluorophenylamino)-6-oxohexyl)-4-methylbenzamide, reference compound] |  |  |  |  | AUC Brain [7, 8]: 0.32 µM·h; Cmax Brain [7, 8]: 370 nM; concentration in the brain over time [7, 8]: not measurable after 2 hours; half-life ([7]; brain, read-out: T1/2 Brain (converted)): 0.34 h; half-life ([7]; plasma, read-out: T1/2 Plasma (converted)): 1.38 h

Now from value to compound, other results behind:

Row | IC50 (HDAC1 [1]) [µM] | IC50 (HDAC2 [2]) [µM] | IC50 (HDAC3) [µM] | SMILES | HDAC isoform selectivity [3] | also measured
7 | > 33 | > 33 | > 33 | CC(=O)Nc1ccc(C(=O)Nc2ccc(C)cc2N)cc1 [Compound 9, 4-acetamido-N-(2-amino-4-methylphenyl)benzamide] |  | IC50 (HDAC4): > 33 µM; IC50 (HDAC5): > 33 µM; IC50 (HDAC6): > 33 µM; IC50 (HDAC7): > 33 µM; IC50 (HDAC8): > 33 µM; IC50 (HDAC9): > 33 µM; suppression of cytokine-induced beta-cell apoptosis (caspase activity) (INS-1E cells): no effect; effect on growth and viability of human megakaryocyte progenitor cells [4]: no significant effect on growth and viability
8 | > 33 | > 33 | > 33 | CC(=O)Nc1ccc(C(=O)Nc2ccc(C(F)(F)F)cc2N)cc1 [Compound 10, 4-acetamido-N-(2-amino-4-(trifluoromethyl)phenyl)benzamide] |  | 
9 | 0.09 | 0.304 | 0.084 | CC(=O)Nc1ccc(C(=O)Nc2ccccc2N)c(F)c1 [Compound 12, 4-acetamido-N-(2-aminophenyl)-2-fluorobenzamide] |  | 
